Earlier results on 1 molecule are cited in patent US20240192198A1, “BIOMIMETIC LIPOSOMES AND METHODS OF MAKING AND USING THE SAME” (Worcester Polytechnic Institute, priority 2022, published 2024).

The conditions of the series: hydrophobicity; obtained from the National Library of Medicine, PubChem Database.

On to `Nc1nc2ncc(CNc3ccc(C(=O)N[C@@H](CCC(=O)O)C(=O)O)cc3)nc2c(=O)[nH]1` [Folic acid], for which the logP was −2.5.

The logP is the decadic logarithm of the partition coefficient of the neutral form, usually between octanol and water.
